Test results published in US10723813B2, “PDGF-B /PDGF-BB binding variants of heparan sulfates” (Agency for Science, Technology and Research, priority 2015, dated 2020).
“Also recorded” adds a separate entry of the source.

Experiments:
Format in all cases: cell-based
[1] = tested on: human dermal fibroblasts (HDFs); assay: In vitro proliferation of HDFs (Example 15), with or without PDGFR/FGFR1 inhibitors; conditions: FIG. 30
Experimental: FIG. 29. Charts showing proliferative effect of PDGF-BB and HS6 on human dermal fibroblasts: (A) PDGF-BB (1, 2.5, 5, 10, 25 ng/ml), (B) HS6 (0.25, 0.5, 1, 2.5, 5, 10, 25 μg HS6), (C) 2.5 ng PDGF-BB+HS6 (0, 0.25, 0.5, 1, 2.5, 5, 10, 25 μg).
FIG. 30. Charts showing effect of PDGFR and FGFR inhibition. (A) Effect of PDGFR inhibitor JNJ-10198409; (B) Effect of FGFR1 inhibitor SU5402.

[2] = tested on: human dermal fibroblast (HDF); assay: HDF proliferation (Guava Viacount, 72 hrs)
Experimental: Proliferation Protocol: • 1. Thaw human dermal fibroblast (HDF, Cascade Biologics) into a T75 in maintenance medium at 5×10^3 cells/cm^2 (α-MEM, 10% FCS, P/S) at 37° C. 5% CO^2 humidified incubator. • 2. At 70-80% confluence, wash cells in PBS twice, add 1 ml of 0.125% trypsin and incubate for 3 mins. Tap the dish and stop the trypsin by adding 5 ml of medium. Centrifuge cells down at 180 g for 7 mins. • 3. Count total number of cells. • 4. Seed cells at 500 μl of 3000 cells/cm^2 cell suspension per well and place the plates into the incubator for 24 hrs. • 5. Change media to α-MEM, 1% FCS, P/S media for 24 hrs. • 6. Treat cells with PDGF-BB and HS fractions. • 7. After 72 hrs, wash cells with PBS and add 100 ul of trypsin, incubate for 3 mins. • 8. Add 100 ul of Guava Viacount dye mastermix into each well of trypsinize cells. • 9. Transfer total volume of 200 ul of cells per well into a 96 well Guava plate. Results:
The proliferation protocol described in Example 9 was used.

[3] = tested on: human dermal fibroblast (HDF); assay: HDF migration scratch assay (IncuCyte)
Experimental: Migration Protocol: • 1. Seed 10,000 HDF per well in maintenance media, into a 96 well ImageLock plate. • 2. After 24 hrs, change media to 1% α-MEM • 3. Once cells are confluent, scratch the surface using the wound maker and wash once with PBS. • 4. Add 100 μl of treatment media into each well and place plate into IncuCyte and run for 40 hours. • 5. Program is set up to take photo every 2 hours. Results:
The migration protocol from Example 11 was followed using a range of HS6+ doses (20 μg/mL, 40 μg/mL, 60 μg/mL) with 5 ng/ml PDGF-BB.

[4] = tested on: human N-TERT/1 keratinocytes; assay: Scratch wound assay on keratinocytes; conditions: confluent N-TERT/1, IncuCyte; increasing amounts (FIG. 31)

Compound: COc1cc2c(cc1OC)-c1[nH]nc(Nc3cccc(F)c3)c1C2 [JNJ-10198409]
- Stimulation of proliferation in the presence of inhibitor [1]: very strongly inhibited

Compound: Cc1c[nH]c(/C=C2\C(=O)Nc3ccccc32)c1CCC(=O)O [SU5402]
- Stimulation of proliferation in the presence of inhibitor [1]: also inhibited—but not as strongly

Compound: PDGF-BB: homodimer of platelet-derived growth factor B; recombinant (R&D)
- HDF proliferation, dosing ([2]; 72 hrs, increasing concentration of the substance): dose dependently increase HDF proliferation; also recorded: dose dependent increase in proliferation
- Optimal concentration for proliferation ([2]; HDF, 72 hrs): 10 ng/mL
- Viability of HDF ([2]; higher concentration of PDGF-BB): decreased viability
- PDGF-BB concentration up to which rate of wound closure increases [3]: up to 10 ng/mL
- Rate of closure at more than 10 ng/mL PDGF-BB [3]: does not speed up the rate of closure
- HDF migration, PDGF-BB dosing ([3]; PDGF-BB alone): induces HDF migration
- Closure of the scratch wound, keratinocytes [4]: able to improve the closure
